{"source": "patent US20170320837A1", "about": "“METHOD FOR TREATING INFLAMMATORY DISORDERS” (Synta Pharmaceuticals Corp., priority 2006, published 2017)", "key": {"[1]": {"test_system": "glucocorticoid receptor", "test": "Glucocorticoid receptor levels in human PBMCs, renal cells and cancer cell lines, immunoblot (Example 115)", "format": "cell-based", "protocol": "Normal human renal proximal tubule epithelial cells and tumor cell lines of MV-4-11, Kasumi-1, and Hela were obtained from Cambrex Bioproducts and American Type Culture Collection, respectively. Cells were cultured with 10% fetal bovine serum/DMEM.\nThe whole blood samples from healthy human volunteer were collected and the PBMCs were isolated immediately as described in Example 116. Isolated human PBMCs were cultured in 10% fetal bovine serum/DMEM.\nHuman PBMCs, kasumi-1, My-4-11, Hela, and human renal proximal tubule epithelial cells were treated with DMSO (control), Compound 226, Compound 287, 17-DMAG at concentrations of 0, 5, 25, or 100 nM (in DMSO) for 16 hours. The cells were then collected and rinsed in ice-cold PBS and stored in liquid nitrogen until further analysis.\n(§1) PBMC, renal and tumor cell pellets were prepared in Western lysis buffer (10 mmol/L HEPES, 42 mmol/L KCl, 5 mmol/L MgCl2, 0.1 mmol/L EDTA, 0.1. mmol/LEGTA, 1 mmol/L DTT, 1% Triton X-100, freshly supplemented with 1× protease inhibitor cocktail from Pierce, Rockford, Ill.). Lysate protein concentrations were quantified by bicinchoninic acid assay (Pierce) and normalized. Equal amounts of protein were loaded onto 10% NuPAGE Bis-Tris Gels (Invitrogen) and subsequently transferred onto polyvinylidene difluoride membranes. The membranes were blocked in 5% milk in TBST. Primary antibody of glucocorticoid receptor from Santa Cruz Biotechnology, Inc. was added and incubated at room temperature for 1 hour with shaking. The blots were washed extensively in TBST before secondary antibodies were added for overnight incubation at 4° C. with gentle shaking. The blots were again washed extensively and developed with SuperSignal West Femto substrate (Pierce)."}, "[2]": {"test_system": "glucocorticoid receptor", "test": "Glucocorticoid receptor levels in human PBMCs, immunoblot (Example 114)", "format": "cell-based", "details": "human PBMCs, 0, 1, 5, 25, or 100 nM, 16 hours", "protocol": "(§2) The whole blood samples from healthy human volunteer and male SD rat were collected and the PBMCs were isolated immediately as follows. 5 ml of whole blood was diluted with an equal volume of sterile 1× PBS. The diluted blood was overlayed carefully into a sterile centrifuge tube without disturbing the bottom layer that containing 5 ml of Ficoll-paque plus density gradient solution. The layered blood was centrifuged at 1500×g for 30 minutes at room temperature. The middle thin layer containing PBMCs was carefully removed, transferred to another sterile centrifuge tube, and washed twice with PBS to remove […]. Isolated rat and human PBMCs were cultured in 10% fetal bovine serum/DMEM.\n(§3) The rat and human PBMCs were treated with DMSO (control), Compound 226, Compound 287, or 17-DMAG at concentrations of 0, 1, 5, 25, or 100 nM (in DMSO) for 16 hours. The cells were then collected and rinsed in ice-cold PBS and stored in liquid nitrogen until further analysis.\nas §1, with “PBMC” for “PBMC, renal and tumor cell pellets”, “0.1 mmol/L EGTA,” for “0.1. mmol/LEGTA,”, “glucocorticod” for “glucocorticoid”, “(Pierce). The immunoblot analysis was performed to measure the level of total GRs by Quantity One software from Bio-Rad.” for “(Pierce).”"}, "[3]": {"test_system": "glucocorticoid receptor", "test": "Glucocorticoid receptor levels in PBMCs of rats after four days of intravenous dosing, immunoblot", "format": "in vivo, Sprague-Dawley (SD) rats", "protocol": "The test compounds were administered daily intravenously via tail vein for four days. […] All rats were sacrificed at the study day 5. About 1-2 mL of blood samples were collected per animal. The blood samples were then pulled together as a group for PBMC isolation."}, "[4]": {"test_system": "glucocorticoid receptor", "test": "Glucocorticoid receptor levels in rat PBMCs, immunoblot", "format": "cell-based", "details": "rat PBMCs, 0, 1, 5, 25, or 100 nM, 16 hours", "protocol": "as §2, §3\nas §1, with “PBMC” for “PBMC, renal and tumor cell pellets”, “0.1 mmol/L EGTA,” for “0.1. mmol/LEGTA,”, “glucocorticod” for “glucocorticoid”, “(Pierce). The immunoblot analysis was performed to measure the level of total GRs by Quantity One software from Bio-Rad.” for “(Pierce).”"}, "[5]": {"molecular_target": "T1, glucocorticoid receptors (Homo sapiens, UniProt P04150)", "T1 construct": "endogenous in cells; host or cells: HeLa S3", "T1 sequence (P04150 1-777)": "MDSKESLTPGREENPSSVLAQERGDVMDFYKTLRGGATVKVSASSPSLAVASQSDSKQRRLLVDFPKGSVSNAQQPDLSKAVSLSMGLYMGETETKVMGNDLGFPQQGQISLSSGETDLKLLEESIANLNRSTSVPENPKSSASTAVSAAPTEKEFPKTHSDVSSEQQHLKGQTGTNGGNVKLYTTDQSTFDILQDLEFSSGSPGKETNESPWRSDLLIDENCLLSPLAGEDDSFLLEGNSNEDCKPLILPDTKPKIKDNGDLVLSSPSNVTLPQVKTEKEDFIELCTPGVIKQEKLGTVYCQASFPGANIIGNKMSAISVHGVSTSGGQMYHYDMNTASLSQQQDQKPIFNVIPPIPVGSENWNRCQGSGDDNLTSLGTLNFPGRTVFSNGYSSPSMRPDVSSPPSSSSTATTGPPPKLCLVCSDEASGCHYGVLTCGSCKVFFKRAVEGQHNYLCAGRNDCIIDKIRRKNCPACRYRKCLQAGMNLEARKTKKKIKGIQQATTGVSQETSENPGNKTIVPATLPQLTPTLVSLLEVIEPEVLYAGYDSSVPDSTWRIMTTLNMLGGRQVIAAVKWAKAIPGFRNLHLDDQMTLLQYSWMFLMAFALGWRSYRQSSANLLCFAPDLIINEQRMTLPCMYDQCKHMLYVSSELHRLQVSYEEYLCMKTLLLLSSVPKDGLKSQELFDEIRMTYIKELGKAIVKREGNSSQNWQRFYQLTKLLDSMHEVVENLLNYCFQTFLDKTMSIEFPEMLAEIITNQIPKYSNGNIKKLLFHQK", "test": "Competitive binding assay with tritium labeled dexamethason in Hela S3 cells (legend of FIG. 3)"}, "[6]": {"test_system": "human PBMCs", "test": "Production of inflammatory cytokines in stimulated human PBMCs", "format": "cell-based", "details": "IFN-γ primed PBMCs stimulated with LPS or SAC, 16-18 hrs", "protocol": "Human PBMC were isolated using Ficoll 400 and diatrizoate sodium (density 1.077 g/ml) solution and purified with RosetteSep (StemCell Technologies). The PBMCs were primed with human IFN-γ (800 U/ml, Pierce Biotechnology #R-IFNG-50), seeded at 0.5×10^6/100 μL/well in 96-well U-bottom plate with culture medium (RPMI 1640, 10% FBS, 1% Pen/Strep), and incubated in 37° C. for overnight. […] About 180 ul/well of supernatant was collected and measured using ELISA kit or Bio-plex (Bio-Rad) to determine the levels of cytokine production. The cell survival was determined using Cell Counting Kit-8 (Dojindo Molecular Technologies, Inc.). […]"}, "[7]": {"molecular_target": "T2, GR (human recombinant) (Homo sapiens, UniProt P04150)", "T2 construct": "purchased Invitrogen P2816", "T2 sequence (P04150 1-777)": "T1 sequence (P04150 1-777)", "test": "GR competitive assay, fluorescence polarization with Fluormone GS1", "format": "binding", "details": "tested up to 10 uM", "protocol": "To determine whether the compounds of the invention bind directly to the glucocorticoid receptor, GR competitive assay was performed using a kit from Invitrogen (Cat #P2816). GR (human recombinant) was added to a fluorescent glucocorticoid (Fluormone™ GS1) ligand with a test compound at various concentrations (a serial dilution of the test compound was done on a 96-well plate) and incubated for 2-4 hours in the dark. […] The shift in polarization value in the presence of a test compound was used to determine relative affinity of test compounds for glucocorticoid receptors. The buffer plus Fluormone™ GS1 and glucocorticoid receptor in the absent of s test compound was used as negative control presenting 0% competition. […] The IC50 was calculated based on the inhibition rate of binding activity of the testing compound."}}, "note": "Entries after “also recorded” stand apart in the source; their conditions may differ.", "data": [{"compound": "CC(C)c1cc(-c2nnc(O)n2-c2ccc3c(ccn3C)c2)c(O)cc1O", "note": "[Compound 226, 3-(2,4-dihydroxy-5-isopropyl-phenyl)-4-(1-methyl-indol-5-yl)-5-hydroxy-[1,2,4]triazole]", "values": [{"measurement": "suppression of glucocorticoid receptors, cancer cells compared with normal cells", "setting": "[1]", "value": "more pronounced in cancer cell than in normal cells"}, {"measurement": "expression of glucocorticoid receptors", "setting": "[1]; HeLa cells, 0, 5, 25, or 100 nM, 16 hrs", "value": "dose dependent decrease"}, {"measurement": "expression of glucocorticoid receptors", "setting": "[1]; Kasumi-1 AML cancer cells, 0, 5, 25, or 100 nM, 16 hrs", "value": "dose dependent decrease"}, {"measurement": "expression of glucocorticoid receptors", "setting": "[1]; MV-4-11 AML cancer cells, 0, 5, 25, or 100 nM, 16 hrs", "value": "dose dependent decrease"}, {"measurement": "expression of glucocorticoid receptors", "setting": "[1]; cancer cells as well as normal PBMCs and renal cells", "value": "suppress the expression of glucocorticoid receptors"}, {"measurement": "expression of glucocorticoid receptors", "setting": "[1]; human PBMCs, 0, 5, 25, or 100 nM, 16 hrs", "value": "dose dependent decrease"}, {"measurement": "expression of glucocorticoid receptors", "setting": "[1]; human renal cells, 0, 5, 25, or 100 nM, 16 hrs", "value": "dose dependent decrease"}, {"measurement": "expression of glucocorticoid receptors", "setting": "[2]", "value": "dose dependent decrease; also recorded: decreased the expression of glucocorticoid receptor in a dose dependent manner"}, {"measurement": "size of the decrease of GR expression compared with the other treatments", "setting": "[3]; 50 mg/kg daily intravenously for four days", "value": "most significant"}, {"measurement": "expression of glucocorticoid receptor (GR) in isolated PBMC compared with vehicle", "setting": "[3]; daily intravenously for four days, 17-DMAG 6 mg/kg, Paclitaxel 5 mg/kg, Compound 264 80 mg/kg, Compound 226 50 mg/kg", "value": "decreased"}, {"measurement": "expression of glucocorticoid receptors", "setting": "[4]", "value": "dose dependent decrease; also recorded: decreased the expression of glucocorticoid receptor in a dose dependent manner"}, {"measurement": "displacement of tritium labeled dexamethason", "setting": "[5]", "value": "did not displace the tritium labeled dexamethason"}, {"measurement": "inhibition of the production of proinflammatory cytokines", "setting": "[6]", "value": "more broadly inhibits the production of proinflammatory cytokines than dexamethasone or 17-DMAG"}, {"measurement": "IC50", "setting": "[7]", "value": "> 10", "unit": "µM"}]}]}
